How the values were obtained:
PKCδ [1] = target: T1, PKCδ (Homo sapiens, UniProt Q05655); experiment: PKCδ phosphorylation (p-T505, p-Y311) by immunoblot in PMA-stimulated CD4+ T cells; assay type: cell-based
T1 construct: Following stimulation, whole cell lysates were obtained; endogenous in cells; host or cells: primary CD4+ T cells from healthy donors or lupus patients
Experimental: Peripheral blood mononuclear cells were isolated from healthy donors or SLE patients by Ficoll-Hypaque density gradient centrifugation. CD4+ T cells were then purified by negative selection using magnetic beads (CD4+ T cell isolation kit; Miltenyi Biotec, Auburn, Calif.) as previously reported (Gorelik, 2007; herein incorporated by reference in its entirety).
(§1) CD4+ T cells were suspended in RPMI 1640 supplemented with 10% fetal calf serum, 2 mM glutamine and penicillin/streptomycin then left unstimulated or stimulated with 50 ng/ml PMA for 15 min at 37° C. Treatment with peroxynitrite was performed at the concentrations and time specified in each experiment and before PMA stimulation. Following stimulation, whole cell lysates were obtained and protein content quantified using the BCA Protein Assay (Pierce, Rockford, Ill.).
(§2) Whole cell protein was fractionated by SDS-PAGE, transferred to nitrocellulose membranes (Schleicher and Schuell, Keene, N.H.) then stained with Ponceau S (Sigma) to verify equal protein loading between lanes. After incubation with the kinase specific antibody then the secondary antibody, protein bands were visualized by chemiluminescence (Amersham, Piscataway, N.J.). The bands on X-ray films were scanned and analyzed with ImageQuant 5.2 software (Amersham) for quantification. Where indicated, blots were stripped and re-probed with the corresponding antibody. Values were normalized to β-actin or the corresponding kinase as indicated.
Experiments were performed during development of embodiments of the present invention to determine if ONOO^− causes the PKCδ T^505 phosphorylation defect observed in lupus T cells. CD4+ T cells from healthy subjects were treated with increasing concentrations of ONOO^− then stimulated with PMA.
The phosphorylation of Y^311 in the PKCδ molecule was also examined, because this amino acid is phosphorylated in cells undergoing oxidative stress (Steinberg, 2004; Kikkawa, 2002; herein incorporated by reference in their entireties). […] It is important to note that p-Y^311 is almost undetectable in resting CD4+ T cells (not shown) similar to p-T^505. […] While PMA promotes phosphorylation on T^505, Y^311 is almost insensitive. In contrast, ONOO^− increases Y311 phosphorylation with a concomitant decrease in p-T^505.

PKCδ [2] = target: T1, PKCδ; experiment: PKCδ nitration: anti-nitrotyrosine immunoprecipitation and immunoblot of CD4+ T cell lysates; assay type: cell-based; details: control T cells treated with ONOO−
Experimental: Immunoprecipitations were performed according to the manufacturer's instructions. Lysates from normal or lupus T cells were incubated with the agarose-conjugated anti-nitrotyrosine antibody overnight at 4° C. Following centrifugation an aliquot of the supernatant (containing non-nitrated proteins) and the beads were resuspended in Laemmli sample buffer and boiled for 5 min. Proteins from each fraction were then analyzed in parallel by SDS-PAGE and immunoblot analysis.
Experiments were conducted during development of embodiments of the present invention to determine whether PKCδ is inactivated in T cells from patients with active lupus through nitration, similar to ONOO treated T cells. CD4+ T cells from 6 lupus patients with active disease (SLEDAI≧4) were stimulated with PMA and nitrated proteins immunoprecipitated from the lysates with anti-3NO2-Tyr antibodies. […] Total and T505 phosphorylated PKCδ content were then compared by immunoblotting.
Nitrated and non-nitrated PKCδ were analyzed as the total PKCδ content in the precipitate and supernatant respectively. The levels of total PKCδ (supernatant+immunoprecipitate) were similar in untreated or ONOO^− treated T cells from control donors and lupus patients (FIGS. 5 A and B). […]

PKCθ = target: T2, PKCθ (Homo sapiens, UniProt Q04759); experiment: PKCθ activation loop phosphorylation by immunoblot in PMA-stimulated CD4+ T cells; assay type: cell-based; details: CD4+ T cells from healthy subjects, increasing ONOO− then PMA
T2 construct: Following stimulation, whole cell lysates were obtained; endogenous in cells; host or cells: primary CD4+ T cells from healthy donors
T2 sequence (Q04759 whole entry): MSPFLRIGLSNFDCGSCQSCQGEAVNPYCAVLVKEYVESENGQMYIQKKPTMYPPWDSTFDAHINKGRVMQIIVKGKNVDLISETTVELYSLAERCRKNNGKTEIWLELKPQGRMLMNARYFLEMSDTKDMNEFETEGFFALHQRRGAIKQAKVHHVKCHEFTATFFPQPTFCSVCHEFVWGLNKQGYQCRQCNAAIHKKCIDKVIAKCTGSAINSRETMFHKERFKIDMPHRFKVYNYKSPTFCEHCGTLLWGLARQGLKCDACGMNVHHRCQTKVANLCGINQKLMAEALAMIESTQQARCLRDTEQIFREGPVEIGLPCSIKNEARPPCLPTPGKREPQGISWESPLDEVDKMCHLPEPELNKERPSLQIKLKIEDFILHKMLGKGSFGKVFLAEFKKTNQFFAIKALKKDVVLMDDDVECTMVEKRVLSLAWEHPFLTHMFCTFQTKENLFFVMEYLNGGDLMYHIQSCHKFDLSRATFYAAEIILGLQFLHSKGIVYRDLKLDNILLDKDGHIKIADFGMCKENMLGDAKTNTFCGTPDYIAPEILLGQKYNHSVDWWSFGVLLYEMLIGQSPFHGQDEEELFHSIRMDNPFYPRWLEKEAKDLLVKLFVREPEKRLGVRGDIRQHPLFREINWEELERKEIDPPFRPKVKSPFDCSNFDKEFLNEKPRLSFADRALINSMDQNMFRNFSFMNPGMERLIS

PKCα = PKCα activation loop phosphorylation by immunoblot in PMA-stimulated CD4+ T cells; assay type: cell-based, human; details: CD4+ T cells from healthy subjects, increasing ONOO− then PMA
ERK = experiment: PMA-stimulated ERK phosphorylation by immunoblot in CD4+ T cells; assay type: cell-based, human; details: CD4+ T cells from healthy controls, increasing ONOO− then PMA
Experimental: as §1, §2
This agrees with our previous results showing that PKCδ T505 phosphorylation is upstream of ERK (Gorelik, 2007; herein incorporated by reference in its entirety) and its impairment decreases ERK pathway signaling.

3-nitrotyrosine proteins = experiment: 3NO2-tyrosine protein derivative formation by immunoblot in CD4+ T cells; assay type: cell-based, human; details: CD4+ T cells from a healthy donor, increasing ONOO− then PMA
Experimental: as §1, §2
Experiments were conducted during development of embodiments of the present invention to confirm the effect of ONOO^− by measuring 3NO2-tyrosine protein derivative formation. CD4+ T cells from a healthy donor were treated with increasing ONOO— concentrations then stimulated with PMA. […]

[3] = PMA stimulation, untreated (0 μM ONOO−) CD4+ T cells

T1 sequence (Q05655 whole entry): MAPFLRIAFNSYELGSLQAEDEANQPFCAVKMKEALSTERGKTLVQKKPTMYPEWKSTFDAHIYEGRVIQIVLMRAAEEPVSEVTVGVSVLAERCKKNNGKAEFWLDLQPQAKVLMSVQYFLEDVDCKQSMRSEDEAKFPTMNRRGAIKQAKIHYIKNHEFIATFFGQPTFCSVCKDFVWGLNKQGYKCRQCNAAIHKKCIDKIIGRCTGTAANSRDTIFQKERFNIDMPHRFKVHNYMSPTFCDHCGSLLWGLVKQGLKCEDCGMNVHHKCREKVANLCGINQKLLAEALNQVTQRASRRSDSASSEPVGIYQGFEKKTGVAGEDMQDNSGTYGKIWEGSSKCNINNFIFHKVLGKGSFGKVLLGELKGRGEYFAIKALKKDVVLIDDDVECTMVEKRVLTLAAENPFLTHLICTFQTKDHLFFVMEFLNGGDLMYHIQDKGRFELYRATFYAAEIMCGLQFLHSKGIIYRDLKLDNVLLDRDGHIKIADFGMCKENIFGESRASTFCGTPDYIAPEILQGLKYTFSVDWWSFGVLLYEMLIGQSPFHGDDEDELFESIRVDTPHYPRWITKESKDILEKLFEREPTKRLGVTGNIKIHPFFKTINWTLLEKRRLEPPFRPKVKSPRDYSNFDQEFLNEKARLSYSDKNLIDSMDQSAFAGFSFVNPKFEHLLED

SMILES: O=NOO [ONOO^−, peroxynitrite]
- PKCδ T505 phosphorylation (PKCδ [1]; CD4+ T cells from healthy subjects, increasing ONOO− (20-80 μM, 15 min) then PMA): concentration dependent decrease
- PKCδ Y311 phosphorylation (PKCδ [1]; PMA stimulated CD4+ T cells, increasing ONOO−): concentration-dependent increase
- nitrated PKCδ fraction T505 phosphorylated after PMA stimulation (PKCδ [2]): 6%
- PKCδ nitrated (PKCδ [2]; PMA stimulated): 74%
- PKC θ activation loop phosphorylation (PKCθ): not appreciably affected
- PKC α activation loop phosphorylation (PKCα): not appreciably affected
- PMA-stimulated ERK phosphorylation (ERK): declines
- 3-nitrotyrosine derivative formation (3-nitrotyrosine proteins): concentration-dependent increase

SMILES: CCCCCCCCCCCCCC(=O)O[C@@H]1[C@@H](C)[C@@]2(O)[C@@H](C=C(CO)C[C@]3(O)C(=O)C(C)=C[C@@H]23)[C@@H]2C(C)(C)[C@]12OC(C)=O [PMA]
- PKCδ T505 phosphorylation (PKCδ [1]; [3]): substantial increase
- PKCδ Y311 phosphorylation (PKCδ [1]; [3]): no appreciable effect
